Reference: patent US9255100B2 (BAYER INTELLECTUAL PROPERTY GMBH, priority 2010, dated 2016)

Target: T1, N-terminally GST-tagged human full length recombinant Mps-1 kinase (Homo sapiens, UniProt P33981)
T1 construct: N-terminally GST-tagged human full length recombinant Mps-1 kinase; purchased Invitrogen, Karslruhe, Germany PV4071
T1 sequence (P33981 1-857): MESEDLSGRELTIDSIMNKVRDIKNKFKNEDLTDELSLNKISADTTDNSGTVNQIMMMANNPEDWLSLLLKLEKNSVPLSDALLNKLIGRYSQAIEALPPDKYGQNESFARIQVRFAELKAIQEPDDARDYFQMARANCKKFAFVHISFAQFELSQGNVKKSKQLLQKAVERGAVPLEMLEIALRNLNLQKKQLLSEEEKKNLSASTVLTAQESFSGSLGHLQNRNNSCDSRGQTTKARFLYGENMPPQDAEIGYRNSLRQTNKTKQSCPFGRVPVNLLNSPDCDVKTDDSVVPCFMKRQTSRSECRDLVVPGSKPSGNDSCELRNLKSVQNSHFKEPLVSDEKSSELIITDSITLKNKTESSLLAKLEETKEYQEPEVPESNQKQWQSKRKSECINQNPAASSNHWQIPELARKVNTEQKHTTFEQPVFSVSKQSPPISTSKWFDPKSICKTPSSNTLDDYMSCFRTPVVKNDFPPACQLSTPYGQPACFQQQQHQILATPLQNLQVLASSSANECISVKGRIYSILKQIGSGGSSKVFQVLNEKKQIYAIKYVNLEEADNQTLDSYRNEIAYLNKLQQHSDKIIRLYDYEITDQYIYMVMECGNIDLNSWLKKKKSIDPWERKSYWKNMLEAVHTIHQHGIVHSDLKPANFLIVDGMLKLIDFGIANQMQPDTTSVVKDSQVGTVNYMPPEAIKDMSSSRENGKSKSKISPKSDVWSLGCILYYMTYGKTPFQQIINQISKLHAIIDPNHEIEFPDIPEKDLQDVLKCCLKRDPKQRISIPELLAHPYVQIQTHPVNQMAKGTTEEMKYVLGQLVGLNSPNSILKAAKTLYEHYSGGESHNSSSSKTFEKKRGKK
Test: Mps-1 kinase assay (TR-FRET)
Assay type: biochemical
Details: Mps1 IC50 [nM], 10 μM ATP, 1 μM peptide substrate, 60 min at 22° C.
Procedure, shortened: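 Compounds were tested against recombinant full-length Mps-1 bearing an N-terminal GST tag, about 1 nM final, with a biotinylated amide-capped peptide as substrate. Detection reagents were then bound for 1 h at 22° C and the product read by TR-FRET.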

Cc1cc(-c2cnc3c(NCCC(F)(F)F)cc(Sc4cccc(O)c4)nn23)ccc1C(=O)NC1CC1 [Example 238, N-cyclopropyl-4-{6-[(3-hydroxyphenyl)sulfanyl]-8-[(3,3,3-trifluoropropyl)amino]imidazo[1,2-b]pyridazin-3-yl}-2-methylbenzamide]
IC50: < 0.1 nM

COc1cccc(Nc2cc(NCCC(F)(F)F)c3ncc(-c4ccc(C(=O)NC5CC5)c(C)c4)n3n2)c1C [Example 426, N-cyclopropyl-4-{6-[(3-methoxy-2-methylphenyl)amino]-8-[(3,3,3-trifluoropropyl)amino]imidazo[1,2-b]pyridazin-3-yl}-2-methylbenzamide]
IC50: 0.2 nM

Cc1cc(-c2cnc3c(NCCC(F)(F)F)cc(Nc4ccccc4)nn23)ccc1C(=O)NC1CC1 [Example 368, 4-{6-anilino-8-[(3,3,3-trifluoropropyl)amino]imidazo[1,2-b]pyridazin-3-yl}-N-cyclopropyl-2-methylbenzamide]
IC50: 0.1 nM

Cc1cc(-c2cnc3c(NCCN(C)C)cc(Oc4cccc(F)c4)nn23)ccc1C(=O)NC1CC1 [Example 487, N-cyclopropyl-4-[8-{[2-(dimethylamino)ethyl]amino}-6-(3-fluorophenoxy)imidazo [1,2-b]pyridazin-3-yl]-2-methylbenzamide]
IC50: 0.1 nM

O=C(NC1CC1)c1ccc(-c2cnc3c(NCCC(F)(F)F)cc(Sc4ccccc4)nn23)c(O)c1 [Example 74, N-cyclopropyl-3-hydroxy-4-{6-(phenylsulfanyl)-8-[(3,3,3-trifluoropropyl)amino]imidazo[1,2-b]pyridazin-3-yl}benzamide]
IC50: < 0.7 nM

COc1ccc(Oc2cc(NCCS(C)(=O)=O)c3ncc(-c4ccc(C(=O)NC5CC5)c(C)c4)n3n2)cc1F [Example 518, N-cyclopropyl-4-[6-(3-fluoro-4-methoxyphenoxy)-8-{[2-(methylsulfonyl)ethyl]amino}imidazo [1,2-b]pyridazin-3-yl]-2-methylbenzamide]
IC50: 0.1 nM

Cc1cc(-c2cnc3c(NCC4COCCO4)cc(-c4ccncc4)nn23)ccc1C(=O)NC1CC1 (racemic) [Example 36, (RS)—N-cyclopropyl-4-{8-[(1,4-dioxan-2-ylmethyl)amino]-6-(pyridin-4-yl)imidazo[1,2-b]pyridazin-3-yl}-2-methylbenzamide]
IC50: 3 nM

Cc1cc(-c2cnc3c(NCC4CCOC4)cc(Oc4cccc(F)c4)nn23)ccc1C(=O)NC1CC1 (centres unmarked) [Example 328, N-cyclopropyl-4-{6-(3-fluorophenoxy)-8-[(tetra-hydrofuran-3-ylmethyl)amino]imidazo[1,2-b]pyridazin-3-yl}-2-methyl-benzamide]
IC50: 0.3 nM

Cc1cc(-c2cnc3c(NCC(C)(C)O)cc(-c4ccccc4F)nn23)ccc1C(=O)NC1CC1 [Example 233, N-cyclopropyl-4-{6-(2-fluorophenyl)-8-[(2-hydroxy-2-methylpropyl)amino]imidazo[1,2-b]pyridazin-3-yl}-2-methylbenzamide]
IC50: 1.7 nM

Cc1cc(-c2cnc3c(NCCC(F)(F)F)cc(Oc4cccc(Cl)c4)nn23)ccc1C(=O)NC1CC1 [Example 266, 4-{6-(3-chlorophenoxy)-8-[(3,3,3-trifluoropropyl)amino]imidazo[1,2-b]pyridazin-3-yl}-N-cyclopropyl-2-methylbenzamide]
IC50: 0.3 nM

CC(C)CNc1cc(-c2cccc(Cl)c2)nn2c(-c3ccc(C(=O)NC4CC4)cc3)cnc12 [Example 124, 4-{6-(3-Chlorophenyl)-8-[(2-methylpropyl)amino]imidazo[1,2-b]pyridazin-3-yl}-N-cyclopropylbenzamide]
IC50: 4.7 nM

CC(C)CNc1cc(-c2ccc(C(=O)N(C)C)cc2)nn2c(-c3ccc(C(=O)NC4CC4)cc3)cnc12 [Example 109, 4-{3-[4-(Cyclopropylcarbamoyl)phenyl]-8-[(2-methylpropyl)amino]imidazo[1,2-b]pyridazin-6-yl}-N,N-dimethylbenzamide]
IC50: 2.1 nM

Cc1cc(-c2cnc3c(NCC(C)(C)O)cc(Oc4cnn(C)c4)nn23)ccc1C(=O)NC1CC1 [Example 321, N-cyclopropyl-4-{8-[(2-hydroxy-2-methylpropyl)amino]-6-[(1-methyl-1H-pyrazol-4-yl)oxy]imidazo[1,2-b]pyridazin-3-yl}-2-methylbenzamide]
IC50: 0.6 nM

COc1ccc(Oc2cc(NCCC(F)(F)F)c3ncc(-c4ccc(C(=O)NC5CC5)c(C)c4)n3n2)cc1F [Example 475, N-cyclopropyl-4-{6-(3-fluoro-4-methoxy-phenoxy)-8-[(3,3,3-tri-fluoropropyl)amino]imidazo[1,2-b]pyridazin-3-yl}-2-methylbenzamide]
IC50: 0.2 nM

CNC(=O)c1ccc(-c2cnc3c(NCCOC)cc(Oc4ccccc4C)nn23)cc1C [Example 583, 4-{8-[(2-methoxyethyl)amino]-6-(2-methylphenoxy)imidazo[1,2-b]pyridazin-3-yl}-N,2-dimethylbenzamide]
IC50: 6.9 nM

CC(C)CNc1cc(-c2cccc(Cl)c2Cl)nn2c(-c3ccc(C(=O)NC4CC4)cc3)cnc12 [Example 131, N-cyclopropyl-4-{6-(2,3-dichlorophenyl)-8-[(2-methylpropyl)amino]imidazo[1,2-b]pyridazin-3-yl}benzamide]
IC50: 10 nM

Cc1cc(-c2cnc3c(NCCC#N)cc(Oc4cccc(F)c4)nn23)ccc1C(=O)NC1CC1 [Example 347, 4-{8-[(2-cyanoethyl)amino]-6-(3-fluorophenoxy)imidazo[1,2-b]pyridazin-3-yl}-N-cyclopropyl-2-methylbenzamide]
IC50: 0.1 nM

CNC(=O)c1cccc(-c2cc(NCC(C)C)c3ncc(-c4ccc(C(=O)NC5CC5)cc4)n3n2)c1 [Example 119, 3-{3-[4-(Cyclopropylcarbamoyl)phenyl]-8-[(2-methylpropyl)amino]imidazo[1,2-b]pyridazin-6-yl}-N-methylbenzamide]
IC50: < 1 nM

Cc1cc(-c2cnc3c(NCC(C)(C)O)cc(Oc4cccc(C(C)C)c4)nn23)ccc1C(=O)NC1CC1 [Example 94, N-cyclopropyl-4-{8-[(2-hydroxy-2-methylpropyl)amino]-6-(3-isopropylphenoxy)imidazo[1,2-b]pyridazin-3-yl}-2-methylbenzamide]
IC50: 0.3 nM

Cc1cc(-c2cnc3c(NCC(C)(C)O)cc(Nc4cccc(Cl)c4)nn23)ccc1C(=O)NC1CC1 [Example 355, 4-{6-[(3-chlorophenyl)amino]-8-[(2-hydroxy-2-methylpropyl)amino]imidazo[1,2-b]pyridazin-3-yl}-N-cyclopropyl-2-methylbenzamide]
IC50: 0.9 nM

Cc1cc(-c2cnc3c(NCCC(F)(F)F)cc(Nc4cccc(O)c4C)nn23)ccc1C(=O)NC1CC1 [Example 454, N-cyclopropyl-4-{6-[(3-hydroxy-2-methylphenyl)amino]-8-[(3,3,3-trifluoropropyl)amino]imidazo[1,2-b]pyridazin-3-yl}-2-methylbenzamide]
IC50: 0.1 nM

Cc1cc(-c2cnc3c(NCCCCN(C)C)cc(Oc4cccc(F)c4)nn23)ccc1C(=O)NC1CC1 [Example 513, N-cyclopropyl-4-[8-{[4-(dimethyl-amino)butyl]amino}-6-(3-fluoro-phenoxy)imidazo[1,2-b]pyridazin-3-yl]-2-methylbenzamide]
IC50: 0.2 nM

CC(C)CNc1cc(-c2ccccc2)nn2c(-c3ccc4c(N)n[nH]c4c3)cnc12 [Example 11, 3-(3-Amino-1H-indazol-6-yl)-N-isobutyl-6-phenylimidazo[1,2-b]pyridazin-8-amine]
IC50: 2.4 nM
